From ChEMBL document CHEMBL5653615 (J Biol Chem, 2013)

Key:
[1] = target: T1, MAP/microtubule affinity-regulating kinase 4 (Homo sapiens) (UniProt Q96L34); test: Inhibition of human MARK4 at 18.6 nM by HotSpot assay relative to control
T1 sequence (whole entry): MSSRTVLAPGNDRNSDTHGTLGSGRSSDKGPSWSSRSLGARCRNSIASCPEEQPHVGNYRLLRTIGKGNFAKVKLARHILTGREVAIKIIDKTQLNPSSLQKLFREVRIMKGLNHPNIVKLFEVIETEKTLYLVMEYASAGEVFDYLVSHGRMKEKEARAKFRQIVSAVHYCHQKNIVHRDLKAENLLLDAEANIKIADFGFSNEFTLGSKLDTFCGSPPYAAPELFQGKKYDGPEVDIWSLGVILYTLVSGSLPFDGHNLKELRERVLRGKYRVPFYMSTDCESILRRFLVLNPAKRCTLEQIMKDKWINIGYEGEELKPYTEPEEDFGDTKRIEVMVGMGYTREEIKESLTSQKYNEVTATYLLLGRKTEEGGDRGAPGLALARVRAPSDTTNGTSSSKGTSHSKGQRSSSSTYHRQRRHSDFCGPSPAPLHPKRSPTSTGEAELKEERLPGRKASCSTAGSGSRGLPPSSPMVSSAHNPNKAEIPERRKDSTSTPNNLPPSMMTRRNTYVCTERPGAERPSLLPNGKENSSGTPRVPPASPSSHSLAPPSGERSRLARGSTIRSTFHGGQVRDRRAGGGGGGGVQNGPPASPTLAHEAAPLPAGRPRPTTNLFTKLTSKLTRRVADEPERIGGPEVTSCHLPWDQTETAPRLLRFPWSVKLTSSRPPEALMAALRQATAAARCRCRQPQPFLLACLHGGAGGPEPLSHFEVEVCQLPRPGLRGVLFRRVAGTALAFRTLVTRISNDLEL

[2] = target: T2, Protein kinase C epsilon type (Homo sapiens) (UniProt Q02156); test: Inhibition of human PKCepsilon at 18.6 nM by HotSpot assay relative to control
T2 sequence (whole entry): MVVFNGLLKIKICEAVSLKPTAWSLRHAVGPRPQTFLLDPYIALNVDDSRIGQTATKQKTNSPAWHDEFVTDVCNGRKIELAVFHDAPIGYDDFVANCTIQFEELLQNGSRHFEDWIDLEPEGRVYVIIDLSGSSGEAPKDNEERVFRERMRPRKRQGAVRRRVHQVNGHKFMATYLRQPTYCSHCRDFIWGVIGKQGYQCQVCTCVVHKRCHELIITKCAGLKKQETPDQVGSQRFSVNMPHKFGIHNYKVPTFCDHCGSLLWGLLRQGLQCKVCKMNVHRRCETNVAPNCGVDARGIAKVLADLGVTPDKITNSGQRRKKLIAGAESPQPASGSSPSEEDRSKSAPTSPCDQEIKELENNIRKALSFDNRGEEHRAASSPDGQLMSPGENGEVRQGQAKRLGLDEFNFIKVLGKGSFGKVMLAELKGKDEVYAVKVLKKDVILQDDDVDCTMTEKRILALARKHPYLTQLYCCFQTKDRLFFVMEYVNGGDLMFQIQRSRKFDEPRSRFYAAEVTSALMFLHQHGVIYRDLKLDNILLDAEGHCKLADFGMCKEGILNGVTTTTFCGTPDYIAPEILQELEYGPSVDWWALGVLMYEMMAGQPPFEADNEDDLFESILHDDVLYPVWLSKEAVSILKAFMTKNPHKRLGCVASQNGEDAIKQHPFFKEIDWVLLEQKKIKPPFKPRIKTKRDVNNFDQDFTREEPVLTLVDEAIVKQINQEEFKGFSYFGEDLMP

[3] = target: T3, Serine/threonine-protein kinase D3 (Homo sapiens) (UniProt O94806); test: Inhibition of human PRKD3 at 18.6 nM by HotSpot assay relative to control
T3 sequence (whole entry): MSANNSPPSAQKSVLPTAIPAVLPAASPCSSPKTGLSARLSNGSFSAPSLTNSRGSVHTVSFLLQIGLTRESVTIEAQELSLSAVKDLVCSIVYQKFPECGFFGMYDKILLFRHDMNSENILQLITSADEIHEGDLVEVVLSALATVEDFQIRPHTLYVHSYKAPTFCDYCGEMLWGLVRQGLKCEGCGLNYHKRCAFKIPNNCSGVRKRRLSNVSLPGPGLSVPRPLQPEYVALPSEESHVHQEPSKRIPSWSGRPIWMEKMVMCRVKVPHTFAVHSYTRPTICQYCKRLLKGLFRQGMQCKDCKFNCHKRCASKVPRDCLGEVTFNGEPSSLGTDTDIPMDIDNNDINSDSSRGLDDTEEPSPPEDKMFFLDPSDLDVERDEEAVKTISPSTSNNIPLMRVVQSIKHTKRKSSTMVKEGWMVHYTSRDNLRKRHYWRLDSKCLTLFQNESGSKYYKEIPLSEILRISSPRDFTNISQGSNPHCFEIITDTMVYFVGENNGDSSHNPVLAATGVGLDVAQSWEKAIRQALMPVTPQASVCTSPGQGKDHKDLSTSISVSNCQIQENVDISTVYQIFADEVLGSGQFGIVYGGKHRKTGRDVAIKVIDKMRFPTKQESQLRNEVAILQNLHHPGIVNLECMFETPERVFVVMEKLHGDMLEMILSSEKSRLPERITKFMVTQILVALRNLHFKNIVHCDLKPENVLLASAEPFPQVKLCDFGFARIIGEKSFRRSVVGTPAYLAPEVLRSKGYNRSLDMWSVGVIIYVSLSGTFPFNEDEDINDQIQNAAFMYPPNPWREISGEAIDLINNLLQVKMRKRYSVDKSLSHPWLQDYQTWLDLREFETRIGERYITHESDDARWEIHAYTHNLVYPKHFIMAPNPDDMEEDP

- inhibition [1]: 7.12%
- inhibition [2]: -9.61%
- inhibition [3]: 9.14%
SMILES: C[C@]1(O)C[C@@H](c2nc(-c3ccc4ccc(-c5ccccc5)nc4c3)c3c(N)nccn32)C1
